Laboratory results: PMC11847361, “Design and screening of novel molecular compounds targeting lactate dehydrogenase of Babesia microti” (Parasites & Vectors, 2025)
“Also recorded” adds a separate entry of the source. Read-outs that look alike come from different tables or passages of the source.

Assays:
human LDH-M (LDH-A4) = molecular target: human LDH-M (LDH-A4); set-up: method as in PMID 9748363; conditions: cited from earlier work
[1] = system: Plasmodium falciparum LDH; set-up: method as in PMID 9748363; conditions: cited from earlier work
[2] = system: LDH activity in B. microti; conditions: cited from earlier work; for IC50: previous work
rBmLDH [3] = molecular target: T1, rBmLDH (Babesia microti, UniProt I7J7V6); assay type: binding; conditions: for Kd: read-out: equilibrium dissociation constant (Kd)
T1 sequence (I7J7V6 1-332): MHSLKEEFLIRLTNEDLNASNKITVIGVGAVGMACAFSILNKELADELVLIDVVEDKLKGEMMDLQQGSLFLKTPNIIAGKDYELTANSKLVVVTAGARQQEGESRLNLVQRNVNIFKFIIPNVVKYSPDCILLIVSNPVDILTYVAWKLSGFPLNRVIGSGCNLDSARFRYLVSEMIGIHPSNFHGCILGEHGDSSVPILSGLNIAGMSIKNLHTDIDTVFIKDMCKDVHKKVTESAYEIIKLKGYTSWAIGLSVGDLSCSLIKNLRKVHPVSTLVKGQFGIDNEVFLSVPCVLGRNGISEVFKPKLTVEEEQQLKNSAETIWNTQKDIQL

B. microti = assay: In vitro growth inhibition of B. microti; assay type: cell-based; conditions: Babesia microti, Erythrocyte, 72 h, read-out: B. microti IC50 (growth inhibition)
Protocol: Once parasitemia reached 60%, blood was collected from the tails of the mice, and the initial percent parasitized erythrocytes (PPE) was diluted to approximately 0.8% using healthy mouse erythrocytes. […] Cultures were incubated for 72 h at 37 ℃ in a gas mixture of 2% O2, 5% CO2, and 93% N2 [23, 24]. After incubation, blood smears were prepared, stained with Giemsa, and the parasitemia rate was calculated. All experiments were performed in triplicate.

rBmLDH [4] = molecular target: T1, rBmLDH; assay type: biochemical; conditions: pH 9.5; read-out: BmLDH IC50
in vitro = assay type: cell-based; conditions: African green monkey
Protocol: The mycoplasma-free Vero cell line (ATCC-CCL-81, immortalized cells) was cryopreserved in liquid nitrogen with DMSO at the National Key Laboratory of Agricultural Microbiology, Huazhong Agricultural University, China. The cytotoxicity of compounds TA and TB was assessed in Vero cells using the CCK-8 assay (Vazyme). Briefly, Vero cells (100 µL, 10,000 cells/well) were cultured in Dulbecco’s modified Eagle medium (DMEM) supplemented with 10% fetal bovine serum (FBS) and 100 U/mL penicillin–streptomycin at 37 ℃ with 5% CO2 for 24 h. The cells were then treated with varying concentrations of TA (2000, 1000, 500, 250, and 125 μM) or TB (800, 400, 200, 100, and 50 μM) for 72 h. After the treatment period, the medium containing TA and TB was replaced with fresh medium. Subsequently, 10 µL of CCK-8 solution was added to each well, and the plate was incubated for an additional 3 h. Absorbance was measured at 450 nm using a multifunctional enzyme marker (Envision, PE, USA). Stock solutions of TA and TB were prepared at a concentration of 100 mM in absolute ethanol. Doxorubicin hydrochloride at 40 µM served as the positive control, while 2% absolute ethanol served as the negative control. The concentration required to achieve 50% cytotoxicity (CC50) values were calculated using GraphPad Prism 8, and all cytotoxicity assays were performed in triplicate.

Compound | IC50 [2] [µM] | binding capacity/affinity to rBmLDH compared with lead compound DHNA (rBmLDH [3]) | Kd (rBmLDH [3]) [µM] | IC50 (rBmLDH [4]) [µM] | CC50 at 72 h (in vitro) [µM] | other results
CCCc1c(O)c(O)c(C(=O)O)c2cc(Cc3ccccc3)c(C)cc12 [Compound 11F] | – | – | – | – | – | Ki (human LDH-M (LDH-A4)): 0.05 µM; Ki [1]: 0.3 µM
O=C(O)c1cc2cc(Br)ccc2c(Br)c1O [DBHCA, 1,6-dibromo-2-hydroxynapthalene 3-carboxylic acid] | 52.7 | – | – | – | – | –
O=C(O)c1cc2cccc(O)c2cc1O [DHNA, 3,5-dihydroxy-2-naphthoxylic acid] | 30 | – | – | – | – | –
Cc1cc2c(C(C)C)c(O)c(O)c(C=O)c2c(O)c1-c1c(C)cc2c(C(C)C)c(O)c(O)c(C=O)c2c1O [Gossypol] | – | – | – | – | – | concentration that significantly inhibits LDH activity in B. microti ([2]; in vitro): 592 nM
O=C(O)c1ccccc1Cc1ccc2ccc(O)cc2c1 [TA] | – | over a threefold increase in binding capacity; also recorded: more than three times higher affinity | 11.3 | 71.6 | 1030 | IC50 (B. microti; in vitro culture in mouse erythrocytes, 37 ℃): 122 µM
O=C(O)c1cccc(-c2ccc3ccc(O)cc3c2)c1 [TB] | – | over a threefold increase in binding capacity; also recorded: more than three times higher affinity | 13.2 | 23.8 | 434 | IC50 (B. microti; in Mus musculus): 112 µM
